Target: T1, Neuropeptide Y receptor type 5 (Homo sapiens, UniProt Q15761)
T1 sequence (Q15761 whole entry): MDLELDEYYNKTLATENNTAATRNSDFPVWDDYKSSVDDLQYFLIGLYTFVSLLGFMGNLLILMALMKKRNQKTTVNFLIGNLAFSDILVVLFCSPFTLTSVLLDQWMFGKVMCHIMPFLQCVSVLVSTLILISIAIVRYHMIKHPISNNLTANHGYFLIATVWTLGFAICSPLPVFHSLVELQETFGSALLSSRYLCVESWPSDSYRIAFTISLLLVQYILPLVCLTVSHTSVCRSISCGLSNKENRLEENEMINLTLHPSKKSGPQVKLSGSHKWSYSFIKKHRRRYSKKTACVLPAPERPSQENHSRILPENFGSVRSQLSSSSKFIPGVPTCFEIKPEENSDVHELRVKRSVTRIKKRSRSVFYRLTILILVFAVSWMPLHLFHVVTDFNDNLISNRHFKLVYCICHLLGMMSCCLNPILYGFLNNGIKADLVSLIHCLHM
Experiment: Displacement of [125I]PYY from human recombinant neuropeptide Y5 receptor expressed in thymidine kinase deficient […] cells

Ki: > 1000 nM
SMILES: COc1cccc2c1C(C1C(=O)CC(C)(C)CC1=O)C1=C(CC(C)(C)CC1=O)O2 (stereo unspecified) [9-(2-Hydroxy-4,4-dimethyl-6-oxocyclohexyl)-8-methoxy-3,3-dimethyl-2,3,4,9-tetrahydro-1H-xanthen-1-one]

From BindingDB's records for doi:10.1021/jm8003587 (Tsukuba Research Institute, 2008)
